Data published in patent publication US20230159436A1, “APPLICATIONS OF AMIDE ANALOGS OF TRITERPENES IN CURES OF CANCER AND OTHER DISEASES” (Pacific Arrow Limited, priority 2021, published 2023).

What follows are compounds tested on U2OS, H460, HTB-9, ES2, HCT116, Capan, OVCAR3, DU145, SK-Mel-5, KB, A498, MCF-7, HepG2, T98G, K562, HeLa (assay: MTT Cytotoxic Assay of reaction products and isolated compounds).
Assay type: cell-based
From the text: The peaks, fractions and compounds are selected according to the activities of times studies and the changes of peaks. Selecting the HPLC fractions for isolation is according to the cytotoxic activity of the reaction product obtained at a specific time. The compounds having strong to weak activities are selected and isolated. Selecting the HPLC fractions for isolation may be according to the cytotoxic activity of times studies and the change of peaks. The anti cancer activities are the MTT studies of bone (U2OS), lung (H460), bladder (HTB-9), ovary (ES2), colon (HCT116), pancreas (Capan), ovary (OVCAR3), prostate (DU145), skin (SK-Mel-5), mouth (KB), kidney (A498), breast (MCF-7), liver (HepG2), brain (T98G), luekemia (K562), cervix (HeLa).
Esterification, amidation, amination, or sulfonamidation of compound (A), (B), (C), (D1), (D2), (E), (F), (G), (H1), (H2), E4A, E4A2Y, E4D, E4D1, (P1), P(2), terpene, isoprene, triterpenes, hydroxylated triterpenes, with acyl halide, wherein the halide comprise chloride, bromide, fluoride and iodide, wherein the acyl halide comprise acyl chloride, wherein acyl chloride comprise tigloyl chloride, angeloyl chloride, acetyl chloride, crotonoyl chloride, 3,3-dimethylartyloyl chloride, senecioyl chloride, cinnamoyl chloride, pentenoyl chloride, hexanoyl chloride, benzoyl chloride, ethylbutyryl chloride, propionyl chloride, 2-propenoyl chloride, isobutyryl chloride, butyryl chloride, (2E)-2-pentenoyl chloride, 4-Pentenoyl chloride, 5-hexenoyl chloride, heptanoyl chloride, octanoyl chloride, nonanoyl chloride, decanoyl chloride, Lauroyl chloride, myristoyl chloride, oleoyl chloride. The compounds vary in composition when the time or temperature of the reaction is changed. The peaks, fractions and compounds are selected according to the activities of times studies and the changes of peaks. The compounds having strong to weak activities are selected and isolated. The anti cancer activities (Cytotoxic Assay) are the MTT studies of bone (U2OS), lung (H460), bladder (HTB-9), ovary (ES2), colon (HCT116), pancreas (Capan), ovary (OVCAR3), prostate (DU145), skin (SK-Mel-5), mouth (KB), kidney (A498), breast (MCF-7), liver (HepG2), brain (T98G), luekemia (K562), cervix (HeLa). The active esterification, amidation, amination, or sulfonamidation products are purified with HPLC. The reaction product of mixtures and individual compounds are tested with MTT Cytotoxic Assay. Details of method are in Experiment 3 of the present application. A second esterification of compound can be selected from the above experiment results to produce new active compounds. A partial esterification compound is selected from the above experiments to perform a second or repeated with a third esterification with different acyl chloride in order to produce new active compounds with the experiments in the present application. The active compounds of this invention are triterpenes in form of amine, sulfonamides, amide, and urea analogs, providing extremely stable activity in solution. They prolong the activities and duration of drug in a subject.
Cells. HTB-9 (bladder), HeLa-S3 (cervix), DU145 (prostate), H460 (lung), MCF-7 (breast), K562 (leukemia), HCT116 (colon), HepG2 (liver), U2OS (bone), T98G (brain), SK-MEL-5 (Skin) and OVCAR 3, ES2 (ovary), Pancreas (Capan), Mouth (KB), Kidney (A498).
MTT Assay. The procedure for MTT assay followed the method described by Carmichael et al. (1987) with modifications. The cells were seeded into a 96-well plate at for 24 hours before drug-treatment. The cells were then exposed to the drugs for 48, 72, or 96 hours. After the drug-treatment, MTT (0.5 mg/mL) was added to cultures and incubated for an hour. The formazan (product of the reduction of tetrazolium by viable cells) formed and was dissolved with DMSO and the O.D. at 490 nm, and was measured by an ELISA reader. The MTT level of the cells before drug-treatment was also measured (T0). […]

SMILES	Cytotoxicity activity
CC=C(C)C(=O)NCC1(C)C(N)CCC2(C)C1CCC1(C)C2CC=C2C3CC(C)(C)C(N)C(N)C3(CNC(=O)C(C)=CC)C(N)CC21C (centres unmarked) [AA1]	moderate
CC=C(C)C(=O)NCC1(C)C(O)CCC2(C)C1CCC1(C)C2CC=C2C3CC(C)(C)C(O)C(O)C3(CNC(=O)C(C)=CC)C(O)CC21C (centres unmarked) [AA2]	strong
CC=C(C)C(=O)NCC1(C)C(N)CCC2(C)C1CCC1(C)C2CC=C2C3CC(C)(C)C(NC(=O)C(C)=CC)C(N)C3(CN)C(N)CC21C (centres unmarked) [AA3]	moderate
CC=C(C)C(=O)NCC1(C)C(N)CCC2(C)C1CCC1(C)C2CC=C2C3CC(C)(C)C(NC(=O)C(C)=CC)C(N)C3(CNC(=O)C(C)=CC)C(N)CC21C (centres unmarked) [AA4]	weak
CC(C)=CC(=O)NCC1(C)C(N)CCC2(C)C1CCC1(C)C2CC=C2C3CC(C)(C)C(N)C(N)C3(CNC(=O)C=C(C)C)C(N)CC21C (centres unmarked) [BB1]	moderate
CC(C)=CC(=O)NCC1(C)C(O)CCC2(C)C1CCC1(C)C2CC=C2C3CC(C)(C)C(O)C(O)C3(CNC(=O)C=C(C)C)C(O)CC21C (centres unmarked) [BB2]	strong
CC(C)=CC(=O)NCC1(C)C(N)CCC2(C)C1CCC1(C)C2CC=C2C3CC(C)(C)C(NC(=O)C=C(C)C)C(N)C3(CN)C(N)CC21C (centres unmarked) [BB3]	moderate
CC(C)=CC(=O)NCC1(C)C(N)CCC2(C)C1CCC1(C)C2CC=C2C3CC(C)(C)C(NC(=O)C=C(C)C)C(N)C3(CNC(=O)C=C(C)C)C(N)CC21C (centres unmarked) [BB4]	weak
C=CCCC(=O)NCC1(C)C(N)CCC2(C)C1CCC1(C)C2CC=C2C3CC(C)(C)C(N)C(N)C3(CNC(=O)CCC=C)C(N)CC21C (centres unmarked) [CC1]	moderate
C=CCCC(=O)NCC1(C)C(O)CCC2(C)C1CCC1(C)C2CC=C2C3CC(C)(C)C(O)C(O)C3(CNC(=O)CCC=C)C(O)CC21C (centres unmarked) [CC2]	strong
C=CCCC(=O)NCC1(C)C(N)CCC2(C)C1CCC1(C)C2CC=C2C3CC(C)(C)C(NC(=O)CCC=C)C(N)C3(CN)C(N)CC21C (centres unmarked) [CC3]	moderate
C=CCCC(=O)NCC1(C)C(N)CCC2(C)C1CCC1(C)C2CC=C2C3CC(C)(C)C(NC(=O)CCC=C)C(N)C3(CNC(=O)CCC=C)C(N)CC21C (centres unmarked) [CC4]	weak
CCCCCC(=O)NCC1(C)C(N)CCC2(C)C1CCC1(C)C2CC=C2C3CC(C)(C)C(N)C(N)C3(CNC(=O)CCCCC)C(N)CC21C (centres unmarked) [DD1]	moderate
CCCCCC(=O)NCC1(C)C(O)CCC2(C)C1CCC1(C)C2CC=C2C3CC(C)(C)C(O)C(O)C3(CNC(=O)CCCCC)C(O)CC21C (centres unmarked) [DD2]	strong
CCCCCC(=O)NCC1(C)C(N)CCC2(C)C1CCC1(C)C2CC=C2C3CC(C)(C)C(NC(=O)CCCCC)C(N)C3(CN)C(N)CC21C (centres unmarked) [DD3]	moderate
CCCCCC(=O)NCC1(C)C(N)CCC2(C)C1CCC1(C)C2CC=C2C3CC(C)(C)C(NC(=O)CCCCC)C(N)C3(CNC(=O)CCCCC)C(N)CC21C (centres unmarked) [DD4]	weak
CCC(CC)C(=O)NCC1(C)C(N)CCC2(C)C1CCC1(C)C2CC=C2C3CC(C)(C)C(N)C(N)C3(CNC(=O)C(CC)CC)C(N)CC21C (centres unmarked) [EE1]	moderate
CCC(CC)C(=O)NCC1(C)C(O)CCC2(C)C1CCC1(C)C2CC=C2C3CC(C)(C)C(O)C(O)C3(CNC(=O)C(CC)CC)C(O)CC21C (centres unmarked) [EE2]	strong
CCC(CC)C(=O)NCC1(C)C(N)CCC2(C)C1CCC1(C)C2CC=C2C3CC(C)(C)C(NC(=O)C(CC)CC)C(N)C3(CN)C(N)CC21C (centres unmarked) [EE3]	moderate
CCC(CC)C(=O)NCC1(C)C(N)CCC2(C)C1CCC1(C)C2CC=C2C3CC(C)(C)C(NC(=O)C(CC)CC)C(N)C3(CNC(=O)C(CC)CC)C(N)CC21C (centres unmarked) [EE4]	weak
CC(=O)NCC1(C)C(N)CCC2(C)C1CCC1(C)C2CC=C2C3CC(C)(C)C(N)C(N)C3(CNC(C)=O)C(N)CC21C (centres unmarked) [HH1]	moderate

SMILES	Cytotoxicity activity
CC(=O)NCC1(C)C(O)CCC2(C)C1CCC1(C)C2CC=C2C3CC(C)(C)C(O)C(O)C3(CNC(C)=O)C(O)CC21C (centres unmarked) [HH2]	strong
CC(=O)NCC1(C)C(N)CCC2(C)C1CCC1(C)C2CC=C2C3CC(C)(C)C(NC(C)=O)C(N)C3(CN)C(N)CC21C (centres unmarked) [HH3]	moderate
CC(=O)NCC1(C)C(N)CCC2(C)C1CCC1(C)C2CC=C2C3CC(C)(C)C(NC(C)=O)C(N)C3(CNC(C)=O)C(N)CC21C (centres unmarked) [HH4]	weak
CC=CC(=O)NCC1(C)C(O)CCC2(C)C1CCC1(C)C2CC=C2C3CC(C)(C)C(O)C(O)C3(CNC(=O)C=CC)C(O)CC21C (centres unmarked) [I I2]	strong
CC=CC(=O)NCC1(C)C(N)CCC2(C)C1CCC1(C)C2CC=C2C3CC(C)(C)C(NC(=O)C=CC)C(N)C3(CN)C(N)CC21C (centres unmarked) [I I3]	moderate
CC=CC(=O)NCC1(C)C(N)CCC2(C)C1CCC1(C)C2CC=C2C3CC(C)(C)C(N)C(N)C3(CNC(=O)C=CC)C(N)CC21C (centres unmarked) [II 1]	moderate
CC=CC(=O)NCC1(C)C(N)CCC2(C)C1CCC1(C)C2CC=C2C3CC(C)(C)C(NC(=O)C=CC)C(N)C3(CNC(=O)C=CC)C(N)CC21C (centres unmarked) [II 4]	weak
CC1(C)CC2C3=CCC4C5(C)CCC(N)C(C)(CNC(=O)C=Cc6ccccc6)C5CCC4(C)C3(C)CC(N)C2(CNC(=O)C=Cc2ccccc2)C(N)C1N (centres unmarked) [JJ1]	moderate
CC1(C)CC2C3=CCC4C5(C)CCC(O)C(C)(CNC(=O)C=Cc6ccccc6)C5CCC4(C)C3(C)CC(O)C2(CNC(=O)C=Cc2ccccc2)C(O)C1O (centres unmarked) [JJ2]	strong
CC1(C)CC2C3=CCC4C5(C)CCC(N)C(C)(CNC(=O)C=Cc6ccccc6)C5CCC4(C)C3(C)CC(N)C2(CN)C(N)C1NC(=O)C=Cc1ccccc1 (centres unmarked) [JJ3]	moderate
CC1(C)CC2C3=CCC4C5(C)CCC(N)C(C)(CNC(=O)C=Cc6ccccc6)C5CCC4(C)C3(C)CC(N)C2(CNC(=O)C=Cc2ccccc2)C(N)C1NC(=O)C=Cc1ccccc1 (centres unmarked) [JJ4]	weak
CC1(C)CC2C3=CCC4C5(C)CCC(N)C(C)(CNC(=O)c6ccccc6)C5CCC4(C)C3(C)CC(N)C2(CNC(=O)c2ccccc2)C(N)C1N (centres unmarked) [KK1]	moderate
CC1(C)CC2C3=CCC4C5(C)CCC(O)C(C)(CNC(=O)c6ccccc6)C5CCC4(C)C3(C)CC(O)C2(CNC(=O)c2ccccc2)C(O)C1O (centres unmarked) [KK2]	strong
CC1(C)CC2C3=CCC4C5(C)CCC(N)C(C)(CNC(=O)c6ccccc6)C5CCC4(C)C3(C)CC(N)C2(CN)C(N)C1NC(=O)c1ccccc1 (centres unmarked) [KK3]	moderate
CC1(C)CC2C3=CCC4C5(C)CCC(N)C(C)(CNC(=O)c6ccccc6)C5CCC4(C)C3(C)CC(N)C2(CNC(=O)c2ccccc2)C(N)C1NC(=O)c1ccccc1 (centres unmarked) [KK4]	weak
CCC(=O)NCC1(C)C(N)CCC2(C)C1CCC1(C)C2CC=C2C3CC(C)(C)C(N)C(N)C3(CNC(=O)CC)C(N)CC21C (centres unmarked) [LL1]	moderate
CCC(=O)NCC1(C)C(O)CCC2(C)C1CCC1(C)C2CC=C2C3CC(C)(C)C(O)C(O)C3(CNC(=O)CC)C(O)CC21C (centres unmarked) [LL2]	strong
CCC(=O)NCC1(C)C(N)CCC2(C)C1CCC1(C)C2CC=C2C3CC(C)(C)C(NC(=O)CC)C(N)C3(CN)C(N)CC21C (centres unmarked) [LL3]	moderate
CCC(=O)NCC1(C)C(N)CCC2(C)C1CCC1(C)C2CC=C2C3CC(C)(C)C(NC(=O)CC)C(N)C3(CNC(=O)CC)C(N)CC21C (centres unmarked) [LL4]	weak
C=CC(=O)NCC1(C)C(N)CCC2(C)C1CCC1(C)C2CC=C2C3CC(C)(C)C(N)C(N)C3(CNC(=O)C=C)C(N)CC21C (centres unmarked) [MM1]	moderate
